Reference: patent publication US9302999B2, “Substituted triazoles as herbicides” (E. I. DU PONT DE NEMOURS AND COMPANY, priority 2012, dated 2016)
Like-named read-outs stand apart in the source and are kept apart here.

Experiments:
[1] = system: pigweed (Amaranthus retroflexus); experiment: Test A pre-/postemergence: pigweed; assay type: in vivo; details: for pest or weed control at 125 g/ha / pest or weed control at 500 g/ha: Amaranthus retroflexus, 240 h
Outline: (§1)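 Whole-plant greenhouse assay in loam/sand. Preemergence directed soil spray plus simultaneous postemergence spray (one- to two-leaf stage, 2–10 cm). Rated visually ~10 days later, 0 = no effect, 100 = complete control.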

[2] = system: wheat (Triticum aestivum); experiment: Test A pre-/postemergence: wheat; assay type: in vivo; details: for plant injury at 125 g/ha / plant injury at 500 g/ha: Triticum aestivum, 240 h
Outline: as §1

corn (Zea mays) = experiment: Test A pre-/postemergence: corn; assay type: in vivo
Outline: as §1

[3] = system: sedge, umbrella (small-flower umbrella sedge Cyperus difformis); experiment: Test B flooded paddy: sedge, umbrella; assay type: in vivo; details: Flood, applied to paddy water at 2-leaf stage, visually evaluated after 13 to 15 days
Outline: (§2)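 Visual ratings on a 0–100 scale, where 0 means no effect and 100 means complete control, were assigned by comparison with controls 13 to 15 days after treatment. Compounds went into paddy water over 2-leaf plants flooded to 3 cm.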

[4] = system: ducksalad (Heteranthera limosa); experiment: Test B flooded paddy: ducksalad; assay type: in vivo; details: Flood, applied to paddy water at 2-leaf stage, visually evaluated after 13 to 15 days
Outline: as §2

[5] = system: lambsquarters (Chenopodium album); experiment: Test C pre-/postemergence: lambsquarters; assay type: in vivo
Outline: (§3)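 Preemergence on seeds in loam/sand, postemergence on 2–18 cm (1–4-leaf) plants in peat-based medium; compounds in non-phytotoxic solvent with surfactant. After 13–15 days in greenhouse, visual rating versus controls, 0 (no effect) to 100 (complete control).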

[6] = system: morningglory (Ipomoea coccinea); experiment: Test C pre-/postemergence: morningglory; assay type: in vivo
Outline: as §3

[7] = system: ragweed (common ragweed, Ambrosia elation); experiment: Test C pre-/postemergence: ragweed; assay type: in vivo
Outline: as §3

Oilseed Rape = experiment: Test C postemergence: oilseed rape; assay type: in vivo, Brassica napus
[8] = Postemergence, 31 g ai/ha, scale 0 to 100 (0 no effect, 100 complete control)
[9] = Postemergence, 62 g ai/ha, scale 0 to 100 (0 no effect, 100 complete control)
[10] = Postemergence, 125 g ai/ha, scale 0 to 100, 0 no effect, 100 complete control
[11] = Postemergence, 250 g ai/ha, scale 0 to 100
[12] = Preemergence, 31 g ai/ha, scale 0 (no effect) to 100 (complete control)
[13] = Preemergence, 62 g ai/ha, scale of 0 to 100, 0 is no effect, 100 is complete control
[14] = Preemergence, 125 g ai/ha, scale 0 to 100, 0 no effect, 100 complete control
[15] = Preemergence, 250 g ai/ha, scale 0 to 100, 0 no effect, 100 complete control
[16] = 125 g ai/ha, scale 0 to 100, 0 no effect, 100 complete control
[17] = Postemergence, 125 g ai/ha, 0 to 100 scale, 0 is no effect, 100 is complete control
[18] = Postemergence, 500 g ai/ha, 0 to 100 scale, 0 is no effect, 100 is complete control
[19] = Preemergence, 125 g ai/ha, 0 to 100 scale where 0 is no effect and 100 is complete control
[20] = Preemergence, 500 g ai/ha, 0 to 100 scale (0 no effect, 100 complete control)
[21] = Postemergence, 250 g ai/ha, scale 0 to 100 (0 no effect, 100 complete control)
[22] = 250 g ai/ha, scale 0 to 100 (0 no effect, 100 complete control)

SMILES | Plant response rating, Lambsquarters [5, 8] | Plant response rating, Lambsquarters [5, 9] | Plant response rating, Lambsquarters [5, 10] | Plant response rating, Lambsquarters [5, 12] | Plant response rating, Lambsquarters [5, 13] | Plant response rating, Lambsquarters [5, 14] | Plant response rating, Lambsquarters [5, 15] | Plant response rating, Morningglory [6, 8] | Plant response rating, Morningglory [6, 9] | Plant response rating, Morningglory [6, 12] | Plant response rating, Morningglory [6, 13] | Plant response rating, Morningglory [6, 14] | Plant response rating, Morningglory [6, 15] | Plant response rating, Ragweed [7, 8] | Plant response rating, Ragweed [7, 9] | Plant response rating, Ragweed [7, 12] | Plant response rating, Ragweed [7, 13] | Plant response rating, Ragweed [7, 14] | Plant response rating, Ragweed [7, 15] | Plant response rating, Oilseed Rape (Oilseed Rape; [16]) | also measured
CCOc1nn(-c2ccc(C(F)(F)F)cc2)nc1Cc1ccnc(C(F)(F)F)c1 [Compound 164, 4-[[5-ethoxy-2-[4-(trifluoromethyl)phenyl]-2H-1,2,3-triazol-4-yl]methyl]-2-(trifluoromethyl)pyridine] | 50 | 55 | 60 | 85 | 85 | 95 | 95 | 50 | 60 | 5 | 15 | 25 | 45 | 50 | 50 | 20 | 20 | 25 | 30 | 20 | pest or weed control at 125 g/ha ([1]; post-emergence, Postemergence, 125 g ai/ha, 0 to 100 scale, 0 is no effect, 100 is complete control, read-out: Plant response rating, Pigweed): 100%; pest or weed control at 500 g/ha ([1]; post-emergence, Postemergence, 500 g ai/ha, 0 to 100 scale, 0 is no effect, 100 is complete control, read-out: Pigweed plant response rating): 100%; pest or weed control at 125 g/ha ([1]; pre-emergence, Preemergence, 125 g ai/ha, 0 to 100 scale where 0 is no effect and 100 is complete control, read-out: Plant response rating, Pigweed): 100%; pest or weed control at 500 g/ha ([1]; pre-emergence, Preemergence, 500 g ai/ha, 0 to 100 scale (0 no effect, 100 complete control), read-out: Plant response rating, Pigweed): 100%; plant injury at 125 g/ha ([2]; post-emergence, Postemergence, 125 g ai/ha, 0 to 100 scale, 0 is no effect, 100 is complete control, read-out: Plant response rating, Wheat): 50%; plant injury at 500 g/ha ([2]; post-emergence, Postemergence, 500 g ai/ha, 0 to 100 scale, 0 is no effect, 100 is complete control, read-out: Wheat plant response rating): 60%; plant injury at 125 g/ha ([2]; pre-emergence, Preemergence, 125 g ai/ha, 0 to 100 scale where 0 is no effect and 100 is complete control, read-out: Plant response rating, Wheat): 50%; plant injury at 500 g/ha ([2]; pre-emergence, Preemergence, 500 g ai/ha, 0 to 100 scale (0 no effect, 100 complete control), read-out: Plant response rating, Wheat): 60%; Corn plant response rating (crop injury, 0 = no effect, 100 = complete kill) at 125 g/ha (corn (Zea mays); Zea mays, post-emergence, 240 h, Postemergence, 125 g ai/ha, 0 to 100 scale, 0 is no effect, 100 is complete control): 30%; plant injury at 500 g/ha (corn (Zea mays); Zea mays, post-emergence, 240 h, Postemergence, 500 g ai/ha, 0 to 100 scale, 0 is no effect, 100 is complete control, read-out: Corn plant response rating): 40%; Corn plant response rating (crop injury, 0 = no effect, 100 = complete kill) at 125 g/ha (corn (Zea mays); Zea mays, pre-emergence, 240 h, Preemergence, 125 g ai/ha, 0 to 100 scale where 0 is no effect and 100 is complete control): 30%; Corn plant response rating (crop injury, 0 = no effect, 100 = complete kill) at 500 g/ha (corn (Zea mays); Zea mays, pre-emergence, 240 h, Preemergence, 500 g ai/ha, 0 to 100 scale (0 no effect, 100 complete control)): 30%; Plant response rating, Sedge, Umbrella (0 to 100 scale, 0 is no effect, 100 is complete control) ([3]; 125 g ai/ha): 75; Plant response rating, Ducksalad (0 to 100 scale, 0 is no effect, 100 is complete control) ([4]; 125 g ai/ha): 0; Plant response rating, Lambsquarters [5, 11]: 70; Plant response rating, Morningglory [6, 11]: 75; Plant response rating, Ragweed [7, 11]: 60
CCCc1nn(-c2ccc(F)cc2)nc1Oc1ccnc(C(F)(F)F)c1 [Compound 168] | 80 | 95 | 95 | 98 | 98 | 98 | 98 | 50 | 80 | 45 | 55 | 55 | 80 | 65 | 65 | 10 | 30 | 80 | 80 | 90 | Plant response rating, Pigweed [1, 17]: 100; Pigweed plant response rating [1, 18]: 100; Plant response rating, Pigweed [1, 19]: 100; Plant response rating, Pigweed [1, 20]: 100; Plant response rating, Wheat [2, 17]: 40; Wheat plant response rating [2, 18]: 50; Plant response rating, Wheat [2, 19]: 40; Plant response rating, Wheat [2, 20]: 60; Plant response rating, Corn (corn (Zea mays); [17]): 20; Corn plant response rating (corn (Zea mays); [18]): 50; Plant response rating, Corn (corn (Zea mays); [19]): 20; Plant response rating, Corn (corn (Zea mays); [20]): 40; Plant response rating, Sedge, Umbrella (0 to 100 scale, 0 is no effect, 100 is complete control) ([3]; 250 g ai/ha): 85; Plant response rating, Ducksalad (0 to 100 scale, 0 is no effect, 100 is complete control) ([4]; 250 g ai/ha): 80; Plant response rating, Lambsquarters [5, 21]: 95; Plant response rating, Morningglory [6, 10]: 90; Plant response rating, Morningglory [6, 21]: 90; Plant response rating, Ragweed [7, 10]: 65; Plant response rating, Ragweed [7, 21]: 80; Plant response rating, Oilseed Rape (Oilseed Rape; [22]): 95
CCc1nn(-c2ccc(C(F)(F)F)cc2)nc1Oc1ccnc(C(F)(F)F)c1 [Compound 169] | 90 | 90 | 98 | 90 | 90 | 90 | 90 | 98 | – | 25 | 55 | 80 | 85 | 40 | 60 | 15 | 15 | 30 | 65 | 40 | Plant response rating, Pigweed [1, 17]: 100; Pigweed plant response rating [1, 18]: 100; Plant response rating, Pigweed [1, 19]: 100; Plant response rating, Pigweed [1, 20]: 100; Plant response rating, Wheat [2, 17]: 30; Wheat plant response rating [2, 18]: 40; Plant response rating, Wheat [2, 19]: 20; Plant response rating, Wheat [2, 20]: 50; Plant response rating, Corn (corn (Zea mays); [17]): 10; Corn plant response rating (corn (Zea mays); [18]): 50; Plant response rating, Corn (corn (Zea mays); [19]): 20; Plant response rating, Corn (corn (Zea mays); [20]): 20; Plant response rating, Sedge, Umbrella (0 to 100 scale, 0 is no effect, 100 is complete control) ([3]; 250 g ai/ha): 85; Plant response rating, Ducksalad (0 to 100 scale, 0 is no effect, 100 is complete control) ([4]; 250 g ai/ha): 85; Plant response rating, Lambsquarters [5, 21]: 98; Plant response rating, Morningglory [6, 10]: 100; Plant response rating, Morningglory [6, 21]: 100; Plant response rating, Ragweed [7, 10]: 85; Plant response rating, Ragweed [7, 21]: 95; Plant response rating, Oilseed Rape (Oilseed Rape; [22]): 60
